# Laboratory results: patent US20250320213A1, “Nitrogen-Containing Heterocyclic Compounds” (Pfizer Inc., priority 2024, published 2025)
# Biological target: T1, STAT6 (Homo sapiens, UniProt P42226)
# T1 construct: stably transfected HaCaT keratinocyte cell line, which expresses NanoLuc luciferase reporter gene under the transcriptional control of the STAT6 responsive promoter; endogenous in cells; host or cells: HaCaT keratinocyte reporter cell line (stably transfected with a NanoLuc reporter)
# T1 sequence (P42226 1-847): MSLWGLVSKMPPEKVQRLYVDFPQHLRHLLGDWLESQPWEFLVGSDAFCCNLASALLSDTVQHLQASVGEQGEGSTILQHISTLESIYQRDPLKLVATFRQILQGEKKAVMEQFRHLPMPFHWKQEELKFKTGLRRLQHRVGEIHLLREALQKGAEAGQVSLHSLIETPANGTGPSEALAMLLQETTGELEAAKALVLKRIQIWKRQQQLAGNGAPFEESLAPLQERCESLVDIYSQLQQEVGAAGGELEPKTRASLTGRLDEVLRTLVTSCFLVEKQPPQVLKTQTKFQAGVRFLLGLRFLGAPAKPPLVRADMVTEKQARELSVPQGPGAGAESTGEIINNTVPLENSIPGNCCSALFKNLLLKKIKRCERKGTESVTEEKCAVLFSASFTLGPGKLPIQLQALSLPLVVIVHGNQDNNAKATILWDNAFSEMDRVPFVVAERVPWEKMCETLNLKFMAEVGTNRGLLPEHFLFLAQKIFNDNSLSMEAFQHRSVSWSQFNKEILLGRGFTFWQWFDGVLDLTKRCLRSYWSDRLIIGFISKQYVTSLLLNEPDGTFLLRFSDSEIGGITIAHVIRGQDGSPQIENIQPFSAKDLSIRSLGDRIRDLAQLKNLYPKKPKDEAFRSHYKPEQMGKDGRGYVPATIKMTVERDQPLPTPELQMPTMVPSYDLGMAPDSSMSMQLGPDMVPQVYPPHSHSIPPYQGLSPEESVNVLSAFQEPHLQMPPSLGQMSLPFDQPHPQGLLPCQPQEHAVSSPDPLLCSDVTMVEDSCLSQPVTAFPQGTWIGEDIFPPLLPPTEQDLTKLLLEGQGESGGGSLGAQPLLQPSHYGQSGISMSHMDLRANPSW
# Experiment: STAT6 Reporter Luciferase Assay (IL-13 stimulated HaCaT keratinocyte NanoLuc reporter cells)
# Type: cell-based
# Settings: IL-13 stimulated HaCaT STAT6 NanoLuc reporter cells; read-out: Reporter EC50
# Outline: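 IL-13 (0.12 nM, 4 h) stimulated STAT6 reporter activity in HaCaT cells after a 2 h compound pre-incubation; NanoLuc signal was measured.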
row,SMILES,EC50
1,"CC(C)n1nc(C(=O)NCc2ccc(NC(=O)N3CCC4(CC3)CN(C)CCO4)cc2)c2c1[C@@H](C)CN(c1ccc(C(=O)N(C)C)cc1)C2 [Example 738, (S)-N-(4-((5-(4-(dimethylcarbamoyl)phenyl)-1-isopropyl-7-methyl-4,5,6,7-tetrahydro-1H-pyrazolo[4,3-c]pyridine-3-carboxamido)methyl)phenyl)-4-methyl-1-oxa-4,9-diazaspiro[5.5]undecane-9-carboxamide]",1 nM
2,"CC(C)n1nc(C(=O)NCc2ccc(NC(=O)NC3(C)CNC3)cc2)c2c1[C@@H](C)CN(c1ccc(C(=O)N(C)C)cc1)C2 [Example 739, (S)-5-(4-(dimethylcarbamoyl)phenyl)-1-isopropyl-7-methyl-N-(4-(3-(3-methylazetidin-3-yl)ureido)benzyl)-4,5,6,7-tetrahydro-1H-pyrazolo[4,3-c]pyridine-3-carboxamide]",2 nM
3,"CC(C)n1nc(C(=O)NCc2ccc(NC(=O)N3CCC4(CC3)CCN4C)cc2)c2c1[C@@H](C)CN(c1ccc(C(=O)N(C)C)cc1)C2 [Example 740, (S)-5-(4-(dimethylcarbamoyl)phenyl)-1-isopropyl-7-methyl-N-(4-(1-methyl-1,7-diazaspiro[3.5]nonane-7-carboxamido)benzyl)-4,5,6,7-tetrahydro-1H-pyrazolo[4,3-c]pyridine-3-carboxamide]",2 nM
4,"CC(C)n1nc(C(=O)NCc2ccc(NC(=O)N3CC4(CCCN(C)C4)C3)cc2)c2c1[C@@H](C)CN(c1ccc(C(=O)N(C)C)cc1)C2 [Example 741, (S)-5-(4-(dimethylcarbamoyl)phenyl)-1-isopropyl-7-methyl-N-(4-(6-methyl-2,6-diazaspiro[3.5]nonane-2-carboxamido)benzyl)-4,5,6,7-tetrahydro-1H-pyrazolo[4,3-c]pyridine-3-carboxamide]",1 nM
5,"CC(C)n1nc(C(=O)NCc2ccc(NC(=O)N3CCC4(CC3)CN(C)C4)cc2)c2c1[C@@H](C)CN(c1ccc(C(=O)N(C)C)cc1)C2 [Example 742, (S)-5-(4-(dimethylcarbamoyl)phenyl)-1-isopropyl-7-methyl-N-(4-(2-methyl-2,7-diazaspiro[3.5]nonane-7-carboxamido)benzyl)-4,5,6,7-tetrahydro-1H-pyrazolo[4,3-c]pyridine-3-carboxamide]",1 nM
6,"CC(C)n1nc(C(=O)NCc2ccc(NC(=O)N3CCN(C)[C@H](C)C3)cc2)c2c1[C@@H](C)CN(c1ccc(C(=O)N(C)C)cc1)C2 [Example 743, (S)-5-(4-(dimethylcarbamoyl)phenyl)-N-(4-((R)-3,4-dimethylpiperazine-1-carboxamido)benzyl)-1-isopropyl-7-methyl-4,5,6,7-tetrahydro-1H-pyrazolo[4,3-c]pyridine-3-carboxamide]",1 nM
7,"CCN1CCN(C(=O)Nc2ccc(CNC(=O)c3nn(C(C)C)c4c3CN(c3ccc(C(=O)N(C)C)cc3)C[C@@H]4C)cc2)CC1 [Example 745, (S)-5-(4-(dimethylcarbamoyl)phenyl)-N-(4-(4-ethylpiperazine-1-carboxamido)benzyl)-1-isopropyl-7-methyl-4,5,6,7-tetrahydro-1H-pyrazolo[4,3-c]pyridine-3-carboxamide]",1 nM
8,"CC(C)n1nc(C(=O)NCc2ccc(NC(=O)N3CC(N(C)C)C3)cc2)c2c1[C@@H](C)CN(c1ccc(C(=O)N(C)C)cc1)C2 [Example 746, (S)-N-(4-(3-(dimethylamino)azetidine-1-carboxamido)benzyl)-5-(4-(dimethylcarbamoyl)phenyl)-1-isopropyl-7-methyl-4,5,6,7-tetrahydro-1H-pyrazolo[4,3-c]pyridine-3-carboxamide]",1 nM
9,"CC(C)n1nc(C(=O)NCc2ccc(NC(=O)N3CC[C@H](N(C)C)C3)cc2)c2c1[C@@H](C)CN(c1ccc(C(=O)N(C)C)cc1)C2 [Example 747, (S)-N-(4-((S)-3-(dimethylamino)pyrrolidine-1-carboxamido)benzyl)-5-(4-(dimethylcarbamoyl)phenyl)-1-isopropyl-7-methyl-4,5,6,7-tetrahydro-1H-pyrazolo[4,3-c]pyridine-3-carboxamide]",1 nM
10,"CC(C)n1nc(C(=O)NCc2ccc(NC(=O)N3CC(C)(N(C)C)C3)cc2)c2c1[C@@H](C)CN(c1ccc(C(=O)N(C)C)cc1)C2 [Example 748, (S)-N-(4-(3-(dimethylamino)-3-methylazetidine-1-carboxamido)benzyl)-5-(4-(dimethylcarbamoyl)phenyl)-1-isopropyl-7-methyl-4,5,6,7-tetrahydro-1H-pyrazolo[4,3-c]pyridine-3-carboxamide]",1 nM
11,"CC(C)n1nc(C(=O)NCc2ccc(NC(=O)N3CCC4(CCN(C)CC4)CC3)cc2)c2c1[C@@H](C)CN(c1ccc(C(=O)N(C)C)cc1)C2 [Example 749, (S)-N-(4-((5-(4-(dimethylcarbamoyl)phenyl)-1-isopropyl-7-methyl-4,5,6,7-tetrahydro-1H-pyrazolo[4,3-c]pyridine-3-carboxamido)methyl)phenyl)-9-methyl-3,9-diazaspiro[5.5]undecane-3-carboxamide]",0.4 nM

# Results, then the molecule that gave them:
row,EC50,SMILES
1,1 nM,"CC(C)n1nc(C(=O)NCc2ccc(NC(=O)N3CC[C@@H](N(C)C)C3)cc2)c2c1[C@@H](C)CN(c1ccc(C(=O)N(C)C)cc1)C2 [Example 750, (S)-N-(4-((R)-3-(dimethylamino)pyrrolidine-1-carboxamido)benzyl)-5-(4-(dimethylcarbamoyl)phenyl)-1-isopropyl-7-methyl-4,5,6,7-tetrahydro-1H-pyrazolo[4,3-c]pyridine-3-carboxamide]"
2,9 nM,"CC(C)n1nc(C(=O)NCc2ccc(NC(=O)N3CC4(CN(C)C4)C3)cc2)c2c1[C@@H](C)CN(c1ccc(C(=O)N(C)C)cc1)C2 [Example 751, (S)-5-(4-(dimethylcarbamoyl)phenyl)-1-isopropyl-7-methyl-N-(4-(6-methyl-2,6-diazaspiro[3.3]heptane-2-carboxamido)benzyl)-4,5,6,7-tetrahydro-1H-pyrazolo[4,3-c]pyridine-3-carboxamide]"
3,2 nM,"CC(C)n1nc(C(=O)NCc2ccc(NC(=O)N3CCC(C)(N(C)C)C3)cc2)c2c1[C@@H](C)CN(c1ccc(C(=O)N(C)C)cc1)C2 (stereo partly drawn) [Example 752, (7S)-N-(4-(3-(dimethylamino)-3-methylpyrrolidine-1-carboxamido)benzyl)-5-(4-(dimethylcarbamoyl)phenyl)-1-isopropyl-7-methyl-4,5,6,7-tetrahydro-1H-pyrazolo[4,3-c]pyridine-3-carboxamide]"
4,0.5 nM,"CC(C)n1nc(C(=O)NCc2ccc(NC(=O)N3CCC4(CCN(C)C4)CC3)cc2)c2c1[C@@H](C)CN(c1ccc(C(=O)N(C)C)cc1)C2 [Example 753, (S)-N-(4-((5-(4-(dimethylcarbamoyl)phenyl)-1-isopropyl-7-methyl-4,5,6,7-tetrahydro-1H-pyrazolo[4,3-c]pyridine-3-carboxamido)methyl)phenyl)-2-methyl-2,8-diazaspiro[4.5]decane-8-carboxamide]"
5,2 nM,"CC(C)n1nc(C(=O)NCc2ccc(NC(=O)N3CCC[C@@H](N(C)C)C3)cc2)c2c1[C@@H](C)CN(c1ccc(C(=O)N(C)C)cc1)C2 [Example 754, (S)-N-(4-((R)-3-(dimethylamino)piperidine-1-carboxamido)benzyl)-5-(4-(dimethylcarbamoyl)phenyl)-1-isopropyl-7-methyl-4,5,6,7-tetrahydro-1H-pyrazolo[4,3-c]pyridine-3-carboxamide]"
6,2 nM,"CC(C)n1nc(C(=O)NCc2ccc(NC(=O)N3CCC[C@H](N(C)C)C3)cc2)c2c1[C@@H](C)CN(c1ccc(C(=O)N(C)C)cc1)C2 [Example 755, (S)-N-(4-((S)-3-(dimethylamino)piperidine-1-carboxamido)benzyl)-5-(4-(dimethylcarbamoyl)phenyl)-1-isopropyl-7-methyl-4,5,6,7-tetrahydro-1H-pyrazolo[4,3-c]pyridine-3-carboxamide]"
7,1 nM,"CC(C)n1nc(C(=O)NCc2ccc(NC(=O)N3CC[C@H](CN(C)C)C3)cc2)c2c1[C@@H](C)CN(c1ccc(C(=O)N(C)C)cc1)C2 [Example 756, (S)-N-(4-((R)-3-((dimethylamino)methyl)pyrrolidine-1-carboxamido)benzyl)-5-(4-(dimethylcarbamoyl)phenyl)-1-isopropyl-7-methyl-4,5,6,7-tetrahydro-1H-pyrazolo[4,3-c]pyridine-3-carboxamide]"
